Test results reported in US7598279B2, “Neurotherapeutic azole compounds” (SK Holdings Co., Ltd., priority 2005, dated 2009).

What was measured:
mice [1] = assay: Forced swimming test (FST); assay type: in vivo; conditions: 30 min after dosing
Experimental: The “Forced swimming test (FST)” for antidepressant activity was also carried out. The procedure employed in the FST for antidepressant is as follows. The compounds to be tested were dissolved in 30% PEG400 and administered ip and po into animals. 30 min later, the immobility time during post 4 minutes of 6 minutes experiment time was measured.

mice [2] = assay: Pentylenetetrazol (PTZ)-induced clonic seizure test; assay type: in vivo; conditions: Mus musculus, sc, read-out: Mice PTZ ED50 (mpk/peak time)
Experimental: The “Pentylenetetrazol (PTZ)” test for anticonvulsant and antianxiety activity was also carried out.
The procedure employed in the PTZ test is as follows. The compounds to be tested were dissolved in 30% PEG400 and administered ip and po into animals. After the designated number of hours, each animal was injected subcutaneously with 100 mg/kg of PTZ (CD97 dose) and observed for up to 30 minutes for the presence or absence of clonic spasms over 5 seconds. Median efficacy dose (ED50) levels were determined using three different dose levels with 8 mice in each group.

[3] = tested on: TBPS site of GABA-A receptor; assay: GABA-A receptor (TBPS site) binding assay, [35S]TBPS; conditions: 100 μM; rat brain membranes, 2 nM [35S]TBPS
Experimental: Compounds of the inventions were tested for specific binding to TBPS (t-butyl bicyclophosphorothionate) site, an allosteric modulator site of GABA-A receptor as modified from G. Maksay and M. Simonyi, Eur. J. Pharmacol. 1985, 117(2), 275. and Gee, K. W. et al., J. Pharm. Exp. Ther. 1988, 246, 803.
This binding assay was performed using [35S] TBPS as radioligand in washed crude membrane homogenate from rat brains. Membrane preparations were carried out according to procedure described below. Sprague-Dawley (SD) rat weighting 230 g were killed by decapitation and their whole brains were rapidly removed and its cerebellums were excluded. The dissected brains were homogenized for 30 sec in 10 volumes (W/V) of ice-cold 0.32 M Sucrose and 50 mM Tris-citrate buffer pH 7.4 using glass homogenate. The homogenate was centrifuged at 2,000×g for 5 min at 4° C. And the supernatant re-centrifuged at 50,000×g for 20 min at 4° C. The supernatant was discarded and the resulting pellets were resuspended in 10 volumes (W/V) of ice-cold 50 mM Tris-citrate buffer pH 7.4. And then the suspended pellet was centrifuged at 50,000×g for 20 min at 4° C. The resulting pellets were suspended again in 32 volumes (W/V) of ice-cold 50 mM Tris-citrate buffer pH 7.4 with 0.05% Triton X-100 and then incubated in 37° C. for 60 min using a water bath. The incubated suspension was centrifuged at 50,000×g for 20 min at 4° C. Resuspending and centrifugation step of the remained pellets were repeated twice at the same manner and final pellets were resuspended in 10 volumes (W/V) of ice-cold 50 mM Tris-citrate buffer pH 7.4 to enable distribution of 2 ml aliquot in microcentrifuge tube, which were used immediately or kept at −80° C. for no more than 1 month before use.
For TBPS site binding assay, 50 μl of the tested compound were added to 100 μg membrane protein suspended in 0.15 ml of 50 mM Tris-citrate buffer with 200 mM NaCl pH 7.4 in presence of 2 nM of [35S] TBPS. The incubation of mixtures were carried out for 1.5 hours at 25° C. and then rapidly filtered over Whatman GF/C glass fiber filters, followed by twice 4.5 ml rinses with ice-cold incubation buffer. The filters were placed in counting vials and 4 ml scintillation solution. The vials were counted in a Beckman scintillation counter. Non-specific binding was determined in parallel incubations with 100 μM picrotoxin.
IC50 values for TBPS site binding assay was calculated using Graphpad PRISM v.3.00.

rat dopamine transporter = target: T1, rat dopamine transporter (Rattus norvegicus, UniProt P23977); assay: Dopamine transport (DAT) assay, [3H]dopamine uptake in CHO D8 cells; assay type: cell-based
T1 construct: expressed in transfected cells
T1 sequence (P23977 whole entry): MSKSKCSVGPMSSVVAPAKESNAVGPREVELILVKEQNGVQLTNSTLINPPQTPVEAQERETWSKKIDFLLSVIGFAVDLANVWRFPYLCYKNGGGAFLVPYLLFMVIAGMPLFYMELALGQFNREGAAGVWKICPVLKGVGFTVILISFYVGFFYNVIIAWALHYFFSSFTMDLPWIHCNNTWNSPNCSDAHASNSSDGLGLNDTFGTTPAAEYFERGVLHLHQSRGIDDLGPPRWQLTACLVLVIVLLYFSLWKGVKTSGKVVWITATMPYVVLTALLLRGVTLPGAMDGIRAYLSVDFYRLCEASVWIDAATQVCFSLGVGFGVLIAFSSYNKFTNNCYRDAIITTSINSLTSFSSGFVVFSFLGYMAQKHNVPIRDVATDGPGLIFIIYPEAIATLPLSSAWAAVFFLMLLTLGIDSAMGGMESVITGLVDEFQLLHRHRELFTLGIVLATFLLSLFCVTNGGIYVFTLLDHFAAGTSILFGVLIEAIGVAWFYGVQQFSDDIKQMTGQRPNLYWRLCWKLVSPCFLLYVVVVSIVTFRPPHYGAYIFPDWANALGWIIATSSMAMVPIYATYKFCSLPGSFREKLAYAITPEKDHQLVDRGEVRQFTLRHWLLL
Experimental: The “Dopamine Transport (DAT)” assay for dopamine uptake inhibition was also carried out. In order to test dopamine uptake inhibition, compounds of the inventions were assayed as modified from Zhaoping Liu et. al., Neuropharmacology, 2001, 41, 464.
Cultured CHO cells were […] with recombinant plasmid, DAT-pCDNA3, which encodes rat dopamine transporter. Several subclones were selected and assayed for [3H] dopamine uptake. The clone with the highest uptake, designated D8, was chosen for Dopamine transport assay of compounds.
For the Dopamine transport assay, D8 cells were cultured in 48-well plate using RMPI1640 containing 10% FCS. D8 cells, grown to 60,000 cells per well, each wells were rinsed once with phosphate buffered saline (PBS) and pre-incubated in 100 μl Hank's balanced salt solution (HBSS) for 10 min at room temperature. The buffer was then changed to 50 μl HBSS containing the tested compounds and 350 μl HBSS containing reaction components ([3H] dopamine, ascorbic acid and pargyline). Final concentrations of [3H] dopamine, ascorbic acid and pargyline are 151 nM, 100 μM and 100 μM, respectively. The cells were incubated for 20 min at room temperature and the reaction was terminated by aspiration of the buffer and washed three times with 1 ml cold BS. The cells were then solubilized in 2N NaOH and an aliquot was measured by liquid scintillation counting to quantify the uptake of [3H] dopamine.

mice [4] = assay: Maximal ElectroShock (MES)-induced tonic seizure test; assay type: in vivo; conditions: Mus musculus; for ED50: read-out: Mice MES ED50 (mpk/peak time); for responders at 50 mg/kg: 4 h
Experimental: The “Maximal ElectroShock (MES)” test is a well-established pharmacological screening method for anticonvulsants against tonic-clonic seizures. The procedure employed in the MES test for anticonvulsants is as follows. The compounds to be tested were dissolved in 30% PEG400 and administered ip and po into animals. After the designated number of hours, maximal electroshock (50 mA, 60 Hz, 0.2 sec) was applied into animals via corneal electrodes using IITC Life Science model 11A Shocker. […] Median efficacy dose (ED50) levels were determined using three different dose levels with at least 8 mice in each group.

mice [5] = assay: Light-Dark Box (LDB) test; assay type: in vivo; conditions: treated 30 min prior to testing
Experimental: Light-Dark Box (LDB) test, one of the unconditioned conflict tests, was used to investigate anxiolytic activity for several drugs such as Diazepam, Buspirone, etc (Allikmets et al, 1996; Belzung and Griebel, 2001; Cutler and Aitken, 1991; Leyre et al, 2004). In the present study, anxiolytic effect of azole compounds containing carbamoyl group represented by general structural formula (IX) was investigated on the LDB test in mice.
The animals were treated with compound 30 min prior to testing. The light-dark box consisted of a plexiglas apparatus measuring 45 cm×27 cm×27 cm (L×W×H), and was partitioned into two compartments, one fully opaque (dark compartment made of black plexiglas: 18 cm of total length of apparatus), while the second was lit from the compartment ceiling by a 100 W bulb. A small opening (7×7 cm) in the partition wall allowed free passage between the light and dark compartments.
Animals were placed at the lit compartment first, and the latency for escape into dark was checked and tested in the LDB for 5 min after the first entering into dark box. The animal, which the latency was over 2 min, was excluded from the test. Total time spent in the light compartment was counted. Movement of animal was checked through the TV-CCD camera by an experienced observer blind to the conditions of the experiment. A mouse whose four paws were in the new box was considered as having changed box.

mice [6] = conditions: probably by inhibition of cytochrome P-450; cited from earlier work
mice and rats = conditions: cited from earlier work
clonic seizures = conditions: in vivo; cited from earlier work
[7] = read-out: Mice MES Protection % (mpk/peak time)

## NC(=O)OC(Cn1nccn1)c1ccccc1Cl (stereo not drawn) [Example 1, Carbamic acid 1-(2-chloro-phenyl)-2-[1,2,3]triazol-2-yl-ethyl ester]
Mice [1]
  Mice FST Reduction of immobility %: N.S
Mice [2]; 0.5 h
  ED50: 24.5 mg/kg
[3]
  TBPS Inhibition % (At 100 μM): 18.3%
Rat dopamine transporter
  inhibition at 10 µM: 47.3%
Mice [4]; 0.5 h
  ED50: 10.7 mg/kg

## NC(=O)OC(Cn1ncnn1)c1ccccc1 (stereo not drawn) [Example 4, Carbamic acid 1-phenyl-2-tetrazol-2-yl-ethyl ester]
Mice [1]; dose not given
  Mice FST Reduction of immobility %: 40.3%
Rat dopamine transporter
  inhibition at 10 µM: 41.5%
Mice [4]; 0.5 h, read-out: Mice MES Protection % (mpk/peak time)
  responders at 30 mg/kg: 66.7%

## NC(=O)OC(Cn1nccn1)c1ccccc1 (stereo not drawn) [Example 7, Carbamic acid 1-phenyl-2-[1,2,3]triazol-2-yl-ethyl ester]
Rat dopamine transporter
  inhibition at 10 µM: -21.1%
Mice [4]; 0.5 h
  ED50: 26.2 mg/kg

## NC(=O)O[C@@H](Cn1ncnn1)c1ccccc1Cl [Example 20, Carbamic acid (R)-1-(2-chloro-phenyl)-2-tetrazol-2-yl-ethyl ester]
Mice [1]; dose not given
  Mice FST Reduction of immobility %: −24.3%
Mice [2]; 0.5 h
  ED50: 3.76 mg/kg
Rat dopamine transporter
  inhibition at 10 µM: 7.1%
Mice [4]; 0.5 h
  ED50: 4.24 mg/kg

## NC(=O)O[C@H](Cn1ncnn1)c1ccccc1Cl [Example 21, Carbamic acid (S)-1-(2-chloro-phenyl)-2-tetrazol-2-yl-ethyl ester]
Mice [2]; 0.5 h
  ED50: 28.8 mg/kg
Rat dopamine transporter
  inhibition at 10 µM: 20.9%
Mice [4]; 0.5 h
  ED50: 14.2 mg/kg

## NC(=O)OC(Cn1nccn1)c1ccc(Cl)c(Cl)c1 (stereo not drawn) [Example 25, Carbamic acid 1-(3,4-dichloro-phenyl)-2-[1,2,3]triazol-2-yl-ethyl ester]
Mice [1]; dose not given
  Mice FST Reduction of immobility %: 94.1%
Rat dopamine transporter
  inhibition at 10 µM: 70.7%
Mice [4]; [7]
  responders at 50 mg/kg: 100%

## NC(=O)OC(Cn1ncnn1)c1ccc(Cl)c(Cl)c1 (stereo not drawn) [Example 26, Carbamic acid 1-(3,4-dichloro-phenyl)-2-tetrazol-2-yl-ethyl ester]
Mice [1]; dose not given
  Mice FST Reduction of immobility %: 97.5%
Rat dopamine transporter
  inhibition at 10 µM: 88.2%
Mice [4]; [7]
  responders at 50 mg/kg: 100%

## NC(=O)OC(Cn1nccn1)c1ccc(Cl)cc1Cl (stereo not drawn) [Example 29, Carbamic acid 1-(2,4-dichloro-phenyl)-2-[1,2,3]triazol-2-yl-ethyl ester]
Mice [1]
  Mice FST Reduction of immobility %: N.S
Mice [5]; dose not given
  Mice LDB % Duration in the light box: 288.5% ^
Mice [2]; 1 h
  ED50: 16.8 mg/kg
Rat dopamine transporter
  inhibition at 10 µM: -27.5%
Mice [4]; 1 h
  ED50: 14.4 mg/kg

## NC(=O)OC(Cn1ncnn1)c1ccc(Cl)cc1Cl (stereo not drawn) [Example 30, Carbamic acid 1-(2,4-dichloro-phenyl)-2-tetrazol-2-yl-ethyl ester]
Mice [1]
  Mice FST Reduction of immobility %: N.S
Mice [5]; dose not given
  Mice LDB % Duration in the light box: 143.6% ^
Mice [2]; 1 h
  ED50: 12.2 mg/kg
Rat dopamine transporter
  inhibition at 10 µM: 15.1%
Mice [4]; 1 h
  ED50: 14.9 mg/kg

## CNC(=O)O[C@@H](Cn1ncnn1)c1ccccc1Cl [Example 45, Methyl-carbamic acid (R)-1-(2-chloro-phenyl)-2-tetrazol-2-yl-ethyl ester]
Mice [5]
  Mice LDB % Duration in the light box: N.S
Mice [2]; 0.5 h
  ED50: 5.81 mg/kg
Rat dopamine transporter
  inhibition at 10 µM: -58.1%
Mice [4]; 0.5 h
  ED50: 4.88 mg/kg

## NC(=O)O[C@H](Cn1nccn1)c1ccc(Cl)c(Cl)c1 [Example 87, Carbamic acid (S)-1-(3,4-dichloro-phenyl)-2-[1,2,3]triazol-2-yl-ethyl ester]
Mice [1]; dose not given
  Mice FST Reduction of immobility %: 92.5%
Mice [5]
  Mice LDB % Duration in the light box: N.S
[3]
  TBPS Inhibition % (At 100 μM): 50.1%
Rat dopamine transporter
  inhibition at 10 µM: 93.8%
Mice [4]; 0.5 h
  ED50: 14.8 mg/kg

## NC(=O)O[C@H](Cn1ncnn1)c1ccc(Cl)c(Cl)c1 [Example 96, Carbamic acid (S)-1-(3,4-dichloro-phenyl)-2-tetrazol-2-yl-ethyl ester]
Mice [1]; dose not given
  Mice FST Reduction of immobility %: 95.8%
Rat dopamine transporter
  inhibition at 10 µM: 98.4%
Mice [4]; 0.5 h
  ED50: 10.4 mg/kg

## O=C(Cn1ccnc1)c1ccc2ccccc2c1 [Nafimidone, 2-(1H-imidazole-1-yl)-1-(2-naphthalenyl)ethanone]
Mice [6]
  hexobarbital-induced sleeping time: potentiated
Mice and rats
  protection against maximal electroshock- or pentylenetetrazole-induced tonic seizures: protect
Clonic seizures
  antagonism of clonic seizures induced by pentylenetetrazole, strychnine, bicuculline, or picrotoxin: do not antagonize

## OC(Cn1ccnc1)c1ccc(CCc2ccccc2)cc1 (stereo not drawn) [denzimol, α-(4-(2-phenylethyl)phenyl)-1H-imidazole-1-ethanol]
Mice [6]
  hexobarbital-induced sleeping time: potentiated
Mice and rats
  protection against maximal electroshock- or pentylenetetrazole-induced tonic seizures: protect
Clonic seizures
  antagonism of clonic seizures induced by pentylenetetrazole, strychnine, bicuculline, or picrotoxin: do not antagonize
